The values below come from ChEMBL document CHEMBL4350953, “Inhibitor of Apoptosis Protein (IAP) Antagonists in Anticancer Agent Discovery: Current Status and Perspectives” (J Med Chem, 2019).

Structures are written as SMILES.

The target in assay [1] is T1, E3 ubiquitin-protein ligase XIAP (Homo sapiens, UniProt P98170). Nature of the assay: Binding affinity to XIAP-BIR3 domain (241 to 356 residues) (unknown origin) by fluorescence polarization-based competition assay. In general terms: Fluorescence polarisation rises when a labelled molecule tumbles more slowly, as on binding a larger partner.
T1 sequence (P98170 whole entry, the tested form may be a part): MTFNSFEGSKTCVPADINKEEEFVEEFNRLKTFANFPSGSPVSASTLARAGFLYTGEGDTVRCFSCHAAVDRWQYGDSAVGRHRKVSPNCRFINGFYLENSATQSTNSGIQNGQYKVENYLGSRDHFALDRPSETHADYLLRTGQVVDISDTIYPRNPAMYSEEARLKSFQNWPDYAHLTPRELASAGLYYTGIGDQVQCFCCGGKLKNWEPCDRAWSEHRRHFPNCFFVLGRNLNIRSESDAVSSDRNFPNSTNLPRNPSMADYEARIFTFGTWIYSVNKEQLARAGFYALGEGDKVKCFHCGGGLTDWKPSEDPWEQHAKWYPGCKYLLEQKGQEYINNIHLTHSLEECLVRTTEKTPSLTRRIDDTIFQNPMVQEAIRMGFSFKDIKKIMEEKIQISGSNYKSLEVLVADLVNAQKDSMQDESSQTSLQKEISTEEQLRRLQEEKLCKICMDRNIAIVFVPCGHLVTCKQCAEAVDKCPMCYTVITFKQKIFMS
Another assay concerns the target T2, Caspase-9 (Homo sapiens, UniProt P55211).
T2 sequence (P55211 whole entry): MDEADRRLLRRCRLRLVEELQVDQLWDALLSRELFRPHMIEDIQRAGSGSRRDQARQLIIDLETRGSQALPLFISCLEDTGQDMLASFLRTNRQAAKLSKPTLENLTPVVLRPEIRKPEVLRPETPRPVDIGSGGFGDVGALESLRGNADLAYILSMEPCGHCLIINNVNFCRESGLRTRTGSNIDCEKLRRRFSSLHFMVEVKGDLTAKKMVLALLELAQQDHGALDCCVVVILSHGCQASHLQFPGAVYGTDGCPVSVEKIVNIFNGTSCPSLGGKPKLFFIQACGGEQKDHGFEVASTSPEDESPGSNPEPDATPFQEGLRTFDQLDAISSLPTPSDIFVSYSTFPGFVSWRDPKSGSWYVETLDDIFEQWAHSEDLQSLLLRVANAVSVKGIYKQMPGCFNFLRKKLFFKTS
The experiment in a line: Inhibition of N-terminal CARD domain of caspase 9 (unknown origin).

Assay [2] deals with MDA-MB-231. The experiment in a line: Cytotoxicity against human MDA-MB-231 cells assessed as reduction in cell viability.
Assay [3] deals with MDA-MB-231. Nature of the assay: Growth inhibition of human MDA-MB-231 cells. Format: functional.
The target in assay [4] is T3, Baculoviral IAP repeat-containing protein 2 (Homo sapiens, UniProt Q13490). Nature of the assay: Induction of cIAP1 (unknown origin) degradation.
T3 sequence (Q13490 whole entry, the tested form may be a part): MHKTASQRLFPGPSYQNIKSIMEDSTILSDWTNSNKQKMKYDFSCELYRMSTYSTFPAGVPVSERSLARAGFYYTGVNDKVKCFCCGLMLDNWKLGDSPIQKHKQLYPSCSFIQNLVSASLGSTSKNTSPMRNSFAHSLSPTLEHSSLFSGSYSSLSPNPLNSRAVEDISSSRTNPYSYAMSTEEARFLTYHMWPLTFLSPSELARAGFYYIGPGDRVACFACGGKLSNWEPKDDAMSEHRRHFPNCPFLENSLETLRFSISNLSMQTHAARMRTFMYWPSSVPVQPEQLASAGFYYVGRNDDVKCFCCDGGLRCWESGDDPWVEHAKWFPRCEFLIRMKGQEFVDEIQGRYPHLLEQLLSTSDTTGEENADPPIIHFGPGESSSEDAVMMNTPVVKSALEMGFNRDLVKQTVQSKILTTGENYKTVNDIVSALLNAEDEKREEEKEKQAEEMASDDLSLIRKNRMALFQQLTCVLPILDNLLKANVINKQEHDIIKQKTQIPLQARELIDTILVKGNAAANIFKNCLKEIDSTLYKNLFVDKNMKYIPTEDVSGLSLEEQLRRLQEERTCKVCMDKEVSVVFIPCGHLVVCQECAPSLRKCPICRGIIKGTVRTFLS
Assay [5] has as its target T3, Baculoviral IAP repeat-containing protein 2. The experiment in a line: Binding affinity to cIAP1-BIR3 domain (unknown origin).
Another assay has as its system HL-60. The experiment in a line: Cytotoxicity against human HL60 cells assessed as reduction in cell viability. Format: functional, cell-based.
For assay [6], the target named is T1, E3 ubiquitin-protein ligase XIAP. The experiment in a line: Binding affinity to XIAP-BIR2/BIR3 domain (unknown origin).
Assay [7] deals with Baculoviral IAP repeat-containing protein 3 (Homo sapiens, UniProt Q13489). The experiment in a line: Binding affinity to cIAP2-BIR3 domain (unknown origin).
Sequence of Baculoviral IAP repeat-containing protein 3 (Q13489 whole entry, the tested form may be a part): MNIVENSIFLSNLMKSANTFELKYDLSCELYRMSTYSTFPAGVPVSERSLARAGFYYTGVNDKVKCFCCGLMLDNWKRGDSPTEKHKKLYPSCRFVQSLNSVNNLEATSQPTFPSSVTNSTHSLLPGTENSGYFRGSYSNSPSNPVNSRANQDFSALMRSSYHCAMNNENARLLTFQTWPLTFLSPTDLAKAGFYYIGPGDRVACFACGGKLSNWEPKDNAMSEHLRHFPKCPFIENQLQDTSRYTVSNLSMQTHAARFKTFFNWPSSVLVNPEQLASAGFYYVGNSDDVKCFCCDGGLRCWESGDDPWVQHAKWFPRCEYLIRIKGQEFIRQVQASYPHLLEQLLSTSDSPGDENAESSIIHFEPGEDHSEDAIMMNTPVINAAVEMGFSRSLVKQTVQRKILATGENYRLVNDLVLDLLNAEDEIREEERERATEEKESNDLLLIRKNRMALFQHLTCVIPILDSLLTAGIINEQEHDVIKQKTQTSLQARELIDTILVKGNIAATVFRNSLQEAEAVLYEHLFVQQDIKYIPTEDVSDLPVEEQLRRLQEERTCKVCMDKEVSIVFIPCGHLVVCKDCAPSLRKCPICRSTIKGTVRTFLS
For assay [8], the target named is T1, E3 ubiquitin-protein ligase XIAP. Nature of the assay: Binding affinity to XIAP-BIR2 domain (unknown origin) by fluorescence polarization-based competition assay.

A word on the Kd: it is a measure of binding affinity in units of concentration. Low values mean a tighter complex, high ones a looser complex. The term EC50 denotes the concentration needed to bring the measured effect to its halfway point. Low values mean an effect from little substance, high ones a need for much substance. For orientation: IC50 means the concentration at which inhibition is half-maximal. As a reminder, the GI50 is the concentration that inhibits growth by half. Read a low GI50 as more potent growth inhibition.

`CN[C@@H](C)C(=O)N[C@H](C(=O)N1CCC[C@H]1C(=O)N[C@H]1CCc2ccccc21)C(C)(C)C` yielded a dissociation constant Kd in [1] of 29 nM.

With `CN[C@@H](C)C(=O)N[C@H](C(=O)N1CCC[C@H]1C(=O)N[C@H]1CCCc2ccccc21)C(C)(C)C`, the EC50 on Caspase-9 came to 290 nM. Moreover, the IC50 in the assay on MDA-MB-231 [2] was found to be 68 nM.

Take `CN[C@@H](C)C(=O)N[C@H](C(=O)N1CCC[C@H]1C(=O)N[C@H]1c2ccccc2C[C@H]1OCC#CC#CCO[C@@H]1Cc2ccccc2[C@@H]1NC(=O)[C@@H]1CCCN1C(=O)[C@@H](NC(=O)[C@H](C)NC)C(C)(C)C)C(C)(C)C`: the 50% growth inhibitory concentration (GI50) in the assay with MDA-MB-231 [3] was below 0.06 nM. In assay [4], this compound showed an EC50 of 0.1 nM. Further, in assay [5], the IC50 turned out to be 15 nM.

As to `CN[C@@H](C)C(=O)N[C@@H](CNC(=O)c1ccc(S(=O)(=O)F)cc1)C(=O)N1CCC[C@@H]1c1cncc(Cc2ccc(F)cc2)n1`, in assay [5], the IC50 was above 200 nM.

As for `CN[C@@H](C)C(=O)N[C@H](C(=O)N1CCC[C@H]1C(=O)N[C@H]1CCCc2ccccc21)C1CCCCC1`, a half-maximal response on Caspase-9 (EC50) required 310 nM. In addition, the half-maximal inhibitory concentration (IC50) in the assay on MDA-MB-231 [2] came out at 13 nM.

In the assay on MDA-MB-231 [3], `CC[C@H](NC)C(=O)N[C@H](C(=O)N1C[C@H]2Cc3cc(Cl)ccc3N2C[C@H]1C(=O)N[C@H]1CCOc2ccccc21)C1CCCCC1` gave a GI50 of 15 nM.

On Caspase-9, `CN[C@@H](C)C(=O)N[C@H](C(=O)N1CC[C@@H](Oc2ccccc2)[C@H]1C(=O)N[C@H]1CCCc2ccccc21)C(C)(C)C` registered an EC50 of 240 nM.

As to `CCO[C@@H]1C[C@@H]2CN(C(=O)[C@@H](NC(=O)[C@H](C)NC)C3CCC(F)(F)CC3)[C@H](C(=O)N[C@H]3CCOc4ccccc43)CN2C1`, the GI50 in the assay with MDA-MB-231 [3] was determined as 1.8 nM. Besides, the equilibrium dissociation constant (Kd) in [5] is 1.3 nM.

Take `CN[C@@H](C)C(=O)NC1CCCC[C@H]2CC[C@@H](C(=O)N[C@@H](c3ccccc3)c3cn(CCCCc4ccc(CCCCn5cc([C@@H](NC(=O)[C@@H]6CC[C@@H]7CCCC[C@H](NC(=O)[C@H](C)NC)C(=O)N76)c6ccccc6)nn5)cc4)nn3)N2C1=O` (stereo not given in full): the IC50 with HL-60 stood at 1 nM.

Regarding `CN[C@@H](C)C(=O)N[C@H]1CCCC[C@H]2CC[C@@H](C(=O)N[C@@H](c3ccccc3)c3cn(Cc4ccccc4)nn3)N2C1=O`, the concentration for half-maximal inhibition (IC50) in the assay on HL-60 was found to be 2000 nM; in assay [6], 376 nM.

For `CN[C@@H](C)C(=O)N[C@H]1CCCC[C@H]2CC[C@@H](C(=O)NC(c3ccccc3)c3ccccc3)N2C1=O`, the half-maximal inhibitory concentration (IC50) with HL-60 was found to be 1400 nM.

The compound `CC[C@H](NC(=O)[C@H](C)NC)C(=O)N1C[C@@H](O)C[C@H]1Cc1c(-c2[nH]c3cc(F)ccc3c2C[C@@H]2C[C@H](O)CN2C(=O)[C@H](CC)NC(=O)[C@H](C)NC)[nH]c2cc(F)ccc12` [BIRINAPANT] displayed a Kd in [7] of 36 nM.

`CN[C@@H](C)C(=O)N[C@H](C(=O)N1CCC[C@H]1C(=O)Nc1snnc1-c1ccccc1)C1CCCCC1` [GDC-0152]: the Kd is 112 nM in [8] and 28 nM in assay [1].
